{"source": "patent US8986529B2", "about": "“Isotachophoresis having interacting anionic and cationic shock waves” (The Board of Trustees of the Leland Stanford Junior …, priority 2010, dated 2015)", "origin": "cited, not measured here", "key": {"[1]": {"conditions": "for pKa: text b64: pKa,TE− of Tricine, pKa,LE+ of Imidazole, pKa,TE+ of Arginine"}, "[2]": {"conditions": "Table 1, fully-ionized (absolute) mobility of the +1 cation, cationic LE+/TE+ candidates for focusing to separation mode"}, "[3]": {"conditions": "Table 2, absolute mobility of the cation, cationic LE+/TE+ candidates for bidirectional cascade ITP"}, "[4]": {"conditions": "Table 1, cationic LE+/TE+ candidates for focusing to separation mode"}, "[5]": {"conditions": "Table 2, acid dissociation constant of the cation, bidirectional cascade ITP buffers"}}, "note": "Like-named read-outs stand apart in the source and are kept apart here.", "data": [{"smiles": "c1c[nH]cn1", "note": "[Imidazole]", "values": [{"measurement": "μ+1", "setting": "[2]", "result": "52 ×10^−9 m^2V^−1s^−1"}, {"measurement": "μ+1", "setting": "[3]", "result": "52 ×10^−9 m^2V^−1s^−1"}, {"measurement": "pKa,+1", "setting": "[1]; [4]", "result": 7.15}, {"measurement": "pKa,+1", "setting": "[1]; [5]", "result": 7.15}, {"measurement": "pKa", "setting": "[1]", "result": 7.15}]}, {"smiles": "OCCN(CCO)C(CO)(CO)CO", "note": "[Bistris]", "values": [{"measurement": "μ+1", "setting": "[3]", "result": "26 ×10^−9 m^2V^−1s^−1"}]}, {"smiles": "c1ccncc1", "note": "[Pyridine]", "values": [{"measurement": "μ+1", "setting": "[3]", "result": "30 ×10^−9 m^2V^−1s^−1"}]}, {"smiles": "Cc1cccnc1", "note": "[3-methyl pyridine]", "values": [{"measurement": "μ+1", "setting": "[2]", "result": "40.1 ×10^−9 m^2V^−1s^−1"}, {"measurement": "pKa,+1", "setting": "[1]; [4]", "result": 5.5}]}, {"smiles": "NC(CO)(CO)CO", "note": "[Tris]", "values": [{"measurement": "μ+1", "setting": "[2]", "result": "29.5 ×10^−9 m^2V^−1s^−1"}, {"measurement": "μ+1", "setting": "[3]", "result": "29.5 ×10^−9 m^2V^−1s^−1"}]}, {"smiles": "Cc1ccccn1", "note": "[2-methyl pyridine]", "values": [{"measurement": "μ+1", "setting": "[2]", "result": "40.1 ×10^−9 m^2V^−1s^−1"}, {"measurement": "μ+1", "setting": "[3]", "result": "40.1 ×10^−9 m^2V^−1s^−1"}, {"measurement": "pKa,+1", "setting": "[1]; [5]", "result": 6.2}]}, {"smiles": "Cc1ccncc1", "note": "[4-methyl pyridine]", "values": [{"measurement": "μ+1", "setting": "[3]", "result": "40.1 ×10^−9 m^2V^−1s^−1"}]}, {"smiles": "CC(N)(CO)CO", "note": "[Amediol]", "values": [{"measurement": "μ+1", "setting": "[2]", "result": "33.5 ×10^−9 m^2V^−1s^−1"}]}, {"smiles": "N=C(N)NCCC[C@H](N)C(=O)O", "note": "[Arginine]", "values": [{"measurement": "μ+1", "setting": "[2]", "result": "26.9 ×10^−9 m^2V^−1s^−1"}, {"measurement": "pKa,+1", "setting": "[1]; [4]", "result": 8.92}, {"measurement": "pKa", "setting": "[1]", "result": 8.92}]}]}
